Results taken from US5593985A, “Cephalosporin compounds” (priority 1994, dated 1997).
≈ marks a conversion by molar mass, not a printed value. Where two headings read alike, the source gives them in different places.

Columns and labels:
[1] = tested on: Streptococcus pyogenes A 308; assay: MIC, standard strain 1; format: cell-based; conditions: read-out: Minimal Inhibitory Concentration(MIC)
Description: (§1) In order to illustrate antibiotic effectiveness of the compounds of the present invention, the minimal inhibitory concentrations (MIC's) of the representative compounds were determined against standard strains and compared with ceftazidime and cefpirome, which were used as control compounds.
(§2) The MIC values were taken by employing a two-fold dilution method: that is, two-fold serial dilutions of each of the test compounds were made from initial concentration of […]; each 1.5 ml of them was dispersed in 13.5 ml of Muller Hinton agar medium to adjust to […]; the standard test strain which had the concentration of 10^7 CFU/ml was inoculated by medium;and these were incubated at 37° C. for 18 hours.
(§3) The test used twenty kinds of standard test strains which induced urinary tract infections, respiratory organ infections, skin soft tissue infections, plasma infections, gastrointestinal infections, central nervous system infections, most of which produce β-lactamase. The standard test strains used are as follows:
1. Streptococcus pyogenes A 308

[2] = tested on: Streptococcus pyogenes A 77; assay: MIC, standard strain 2; format: cell-based; conditions: read-out: Minimal Inhibitory Concentration(MIC)
Description: as §1, §2, §3
2. Streptococcus pyogenes A 77

Streptococcus faecium 8b = assay: MIC, standard strain 3; format: cell-based; conditions: Enterococcus faecium, read-out: Minimal Inhibitory Concentration(MIC)
Description: as §1, §2, §3
3. Streptococcus faecium 8b

[3] = tested on: Staphylococcus aureus SG 511; assay: MIC, standard strain 4; format: cell-based; conditions: SG511, 18 h, read-out: Minimal Inhibitory Concentration(MIC)
Description: as §1, §2, §3
4. Staphylococcus aureus SG 511

[4] = tested on: Staphylococcus aureus 285; assay: MIC, standard strain 5; format: cell-based; conditions: read-out: Minimal Inhibitory Concentration(MIC)
Description: as §1, §2, §3
5. Staphylococcus aureus 285

[5] = tested on: Staphylococcus aureus 503; assay: MIC, standard strain 6; format: cell-based; conditions: read-out: Minimal Inhibitory Concentration(MIC)
Description: as §1, §2, §3
6. Staphylococcus aureus 503

Escherichia coli 0 55 = assay: MIC, standard strain 7; format: cell-based; conditions: 055, E. coli 0 55, two-fold dilution, Muller Hinton agar, 10^7 CFU/ml, 37° C., 18 hours, read-out: Minimal Inhibitory Concentration(MIC)
Description: as §1, §2
(§4) The test used twenty kinds of standard test strains which induced urinary tract infections, respiratory organ infections, skin soft tissue infections, plasma infections, gastrointestinal infections, central nervous system infections, most of which produce β-lactamase.

Escherichia coli DC 0 = assay: MIC, standard strain 8; format: cell-based; conditions: DC0, E. coli DC 0, two-fold dilution, Muller Hinton agar, 10^7 CFU/ml, 37° C., 18 hours, read-out: Minimal Inhibitory Concentration(MIC)
Description: as §1, §2, §4

Escherichia coli DC 2 = assay: MIC, standard strain 9; format: cell-based; conditions: DC2, E. coli DC 2, two-fold dilution, Muller Hinton agar, 10^7 CFU/ml, 37° C., 18 hours, read-out: Minimal Inhibitory Concentration(MIC)
Description: as §1, §2, §4

Escherichia coli TEM = assay: MIC, standard strain 10; format: cell-based; conditions: 18 h, read-out: Minimal Inhibitory Concentration(MIC)
Description: as §1, §2, §4

Escherichia coli 1507 E = assay: MIC, standard strain 11; format: cell-based; conditions: read-out: Minimal Inhibitory Concentration(MIC)
Description: as §1, §2, §4

[6] = tested on: Pseudomonas aeruginosa 9.027; assay: MIC, standard strain 12; format: cell-based; conditions: read-out: Minimal Inhibitory Concentration(MIC)
Description: as §1, §2, §3
12. Pseudomonas aeruginosa 9.027

[7] = tested on: Pseudomonas aeruginosa 1592 E; assay: MIC, standard strain 13; format: cell-based; conditions: read-out: Minimal Inhibitory Concentration(MIC)
Description: as §1, §2, §3
13. Pseudomonas aeruginosa 1592 E

[8] = tested on: Pseudomonas aeruginosa 1771; assay: MIC, standard strain 14; format: cell-based; conditions: read-out: Minimal Inhibitory Concentration(MIC)
Description: as §1, §2, §3
14. Pseudomonas aeruginosa 1771

[9] = tested on: Pseudomonas aeruginosa 1771M; assay: MIC, standard strain 15; format: cell-based; conditions: 18 h, read-out: Minimal Inhibitory Concentration(MIC)
Description: as §1, §2, §3
15. Pseudomonas aeruginosa 1771M

Salmonella typhimurium = assay: MIC, standard strain 16; format: cell-based; conditions: Salmonella enterica, read-out: Minimal Inhibitory Concentration(MIC)
Description: as §1, §2, §3
16. Salmonella typhimurium

[10] = tested on: Klebsiella aerogenes 1552 E; assay: MIC, standard strain 18; format: cell-based; conditions: read-out: Minimal Inhibitory Concentration(MIC)
Description: as §1, §2, §3
18. Klebsiella aerogenes 1552 E

[11] = tested on: Enterobacter cloacae P 99; assay: MIC, standard strain 19; format: cell-based; conditions: P99, 18 h, read-out: Minimal Inhibitory Concentration(MIC)
Description: as §1, §2, §3
19. Enterobacter cloacae P 99

[12] = tested on: Enterobacter cloacae 1321 E; assay: MIC, standard strain 20; format: cell-based; conditions: read-out: Minimal Inhibitory Concentration(MIC)
Description: as §1, §2, §3
20. Enterobacter cloacae 1321 E

MRSA(Yonsei Univ.) = assay: MIC, clinically separated strains; format: cell-based
Description: as §2

acute toxicity test = conditions: in vivo; acute toxicity, intravenous injection
Staphylococcus = conditions: compared with DQ-2556; cited from earlier work
Pseudomonas = conditions: compared with DQ-2556 or ceftazidime; cited from earlier work
[13] = A77, S. pyogenes A 77, two-fold dilution, Muller Hinton agar, 10^7 CFU/ml, 37° C., 18 hours
[14] = S. faecium 8b, two-fold dilution, Muller Hinton agar, 10^7 CFU/ml, 37° C., 18 hours
[15] = Staphylococcus aureus, S. aureus 285, two-fold dilution, Muller Hinton agar, 10^7 CFU/ml, 37° C., 18 hours
[16] = Staphylococcus aureus, S. aureus 503, two-fold dilution, Muller Hinton agar, 10^7 CFU/ml, 37° C., 18 hours
[17] = E. coli 1507 E, two-fold dilution, Muller Hinton agar, 10^7 CFU/ml, 37° C., 18 hours
[18] = Pseudomonas aeruginosa, P. aeruginosa 9.027, two-fold dilution, Muller Hinton agar, 10^7 CFU/ml, 37° C., 18 hours
[19] = P. aeruginosa 1592 E, two-fold dilution, Muller Hinton agar, 10^7 CFU/ml, 37° C., 18 hours
[20] = Pseudomonas aeruginosa, P. aeruginosa 1771, two-fold dilution, Muller Hinton agar, 10^7 CFU/ml, 37° C., 18 hours
[21] = K. aerogenes 1552 E, two-fold dilution, Muller Hinton agar, 10^7 CFU/ml, 37° C., 18 hours
[22] = E. cloacae 1321 E, two-fold dilution, Muller Hinton agar, 10^7 CFU/ml, 37° C., 18 hours

SMILES | MIC ([1]; A308, 18 h) | MIC [2, 13] | MIC (Streptococcus faecium 8b; [14]) | MIC [3] | MIC [4, 15] | MIC [5, 16] | MIC (Escherichia coli 0 55) | MIC (Escherichia coli DC 0) | MIC (Escherichia coli DC 2) | MIC (Escherichia coli TEM) | MIC (Escherichia coli 1507 E; [17]) | MIC [6, 18] | MIC [7, 19] | MIC [8, 20] | MIC [9] | MIC [10, 21] | MIC [11] | MIC [12, 22] | MIC (Salmonella typhimurium; TYPHIMURIUM, 18 h) | other results
CO/N=C(\C(=O)N[C@@H]1C(=O)N2C(C(=O)[O-])=C(C[n+]3ccc(C(N)=S)c4c3CCC4)CS[C@H]12)c1csc(N)n1 [Example 5, 7-β-[(Z)-2-(2-aminothiazol-4-yl)-2-methoxyiminoacetamido]-3-[(2,3-cyclopenteno-4-thiocarbamoyl-1-pyridinium)methyl]-3-cephem-4-carboxylate] | 4 µg/mL (≈ 6.97 µM) | 2 µg/mL (≈ 3.49 µM) | 12500 µg/mL (≈ 21800 µM) | 781 µg/mL (≈ 1360 µM) | 1560 µg/mL (≈ 2720 µM) | 391 µg/mL (≈ 682 µM) | 49 µg/mL (≈ 85.4 µM) | 98 µg/mL (≈ 171 µM) | 25 µg/mL (≈ 43.6 µM) | 98 µg/mL (≈ 171 µM) | 98 µg/mL (≈ 171 µM) | 6250 µg/mL (≈ 10900 µM) | 3120 µg/mL (≈ 5450 µM) | 1560 µg/mL (≈ 2720 µM) | 391 µg/mL (≈ 682 µM) | 49 µg/mL (≈ 85.4 µM) | 6250 µg/mL (≈ 10900 µM) | 13 µg/mL (≈ 22.7 µM) |  | MIC (Salmonella typhimurium; S. typhimurium, two-fold dilution, Muller Hinton agar, 10^7 CFU/ml, 37° C., 18 hours): 49 µg/mL (≈ 85.4 µM); antibiotic activities against MRSA(Yonsei Univ.), in words (MRSA(Yonsei Univ.)): unexpectedly potent antibiotic activities; LD50 (acute toxicity test): > 3000 mg/kg
CO/N=C(\C(=O)N[C@@H]1C(=O)N2C(C(=O)[O-])=C(C[n+]3ccc(-c4nc(C)cs4)c4c3CCC4)CS[C@H]12)c1csc(N)n1 [Example 25, 7-β-[(Z)-2-(2-aminothiazol-4-yl)-2-methoxyiminoacetamido]-3-[(2,3-cyclopenteno-4-(4-methylthiazol-2-yl)-1-pyridinium)methyl]-3-cephem-4-carboxylate] |  | 2 µg/mL (≈ 3.27 µM) | 12500 µg/mL (≈ 20400 µM) | 391 µg/mL (≈ 639 µM) | 781 µg/mL (≈ 1280 µM) | 195 µg/mL (≈ 319 µM) | 195 µg/mL (≈ 319 µM) | 25 µg/mL (≈ 40.9 µM) | 25 µg/mL (≈ 40.9 µM) | 391 µg/mL (≈ 639 µM) | 781 µg/mL (≈ 1280 µM) | 100000 µg/mL (≈ 163000 µM) | 50000 µg/mL (≈ 81700 µM) | 50000 µg/mL (≈ 81700 µM) | 1560 µg/mL (≈ 2560 µM) | 781 µg/mL (≈ 1280 µM) | 25000 µg/mL (≈ 40900 µM) | 98 µg/mL (≈ 160 µM) | 391 µg/mL (≈ 639 µM) | MIC ([1]; A308, S. pyogenes A 308, two-fold dilution, Muller Hinton agar, 10^7 CFU/ml, 37° C., 18 hours): 4 µg/mL (≈ 6.54 µM)
CC(C)(O/N=C(\C(=O)N[C@@H]1C(=O)N2C(C(=O)[O-])=C(C[n+]3ccccc3)CS[C@H]12)c1csc(N)n1)C(=O)O [ceftazidime, reference compound] | 98 µg/mL (≈ 179 µM) |  |  | 12500 µg/mL (≈ 22900 µM) |  |  | 98 µg/mL (≈ 179 µM) | 98 µg/mL (≈ 179 µM) | 98 µg/mL (≈ 179 µM) | 195 µg/mL (≈ 357 µM) |  |  |  |  | 98 µg/mL (≈ 179 µM) |  | 100000 µg/mL (≈ 183000 µM) |  | 195 µg/mL (≈ 357 µM) | MIC ([2]; A77, 18 h): 49 µg/mL (≈ 89.6 µM); MIC (Streptococcus faecium 8b; 8B, 18 h): 100000 µg/mL (≈ 183000 µM); MIC ([4]; Staphylococcus aureus, 285, 18 h): 12500 µg/mL (≈ 22900 µM); MIC ([5]; Staphylococcus aureus, 503, 18 h): 98 µg/mL (≈ 179 µM); MIC (Escherichia coli 1507 E; 1507E, 18 h): 195 µg/mL (≈ 357 µM); MIC ([6]; Pseudomonas aeruginosa, 9.027, 18 h): 3120 µg/mL (≈ 5720 µM); MIC ([7]; 1592E, 18 h): 781 µg/mL (≈ 1430 µM); MIC ([8]; Pseudomonas aeruginosa, 1771, 18 h): 391 µg/mL (≈ 715 µM); MIC ([10]; 1552E, 18 h): 98 µg/mL (≈ 179 µM); MIC ([12]; 1321E, 18 h): 25 µg/mL (≈ 45.7 µM); activity against Staphylococcus, in words (Staphylococcus): relatively low activity against Staphylococcus; activity against Pseudomonas, in words (Pseudomonas): higher activity against Pseudomonas
